Reference: patent US20250270159A1, “1-(CYCLOBUTANEMETHYLIDENE)-2, 4, 5-TRIMETHOXYBENZENE COMPOUND AND PREPARATION METHOD AND USE THEREOF” (CHENGDU XINRUI TAIKANG TECHNOLOGY CO., LTD., priority 2023, published 2025)

Experiments:
[1] = tested on: rat model of lithium-pilocarpine-induced epilepsy; test: Rat model of lithium-pilocarpine-induced epilepsy (SE), highest seizure grade score; type: in vivo, Sprague Dawley (SD) rats; details: 50 mg/kg intraperitoneal, 1 h after SE onset; acute phase; Racine 0-6
Protocol: (1) Experimental Animals: SPF Adult Male Sprague Dawley (SD) Rats, with a Weight of 200-250 g.
Methylscopolamine bromide, lithium chloride, and pilocarpine were weighed, and experimental drugs were dissolved to working concentrations (100 mg/mL of lithium chloride solution, 1 mg/mLof methylscopolamine bromide solution, and 20 mg/mL of pilocarpine solution) with 0.9% saline. Rats were injected intraperitoneally with lithium chloride (a dose of 127 mg/kg), and 18-20 h later, scopolamine methylbromide (a dose of 1 mg/kg) was injected intraperitoneally. […] Thereafter, an additional dose of 10 mg/kg pilocarpine was injected intraperitoneally every 30 min until the onset of a grade IV or higher status epilepticus (SE)-like seizure without significant intermittent intervals, with a maximum dose of 60 mg/kg.
Model inclusion criterion: experimental animals presenting continuous seizures of grade IV or higher for 1 h was judged as successful modeling.
The rats with successful modeling were randomly divided into three groups, namely a model group, a CTMB group, and a sodium valproate (VPA) group. […]
Referring to the grading scale of Racine scores, the seizure symptoms of each group of rats after the drug intervention were observed, and the seizure grades of each group of rats in the acute phase were recorded. […]

[2] = tested on: reduced glutathione (GSH); test: GSH content in striatum of PD mice; type: in vivo, C57 mice; details: Group D, CTMB 20 mg/kg ip, after 4 weeks, injured side
Protocol: (§1) The mice were randomly divided into a sham operation group (group S, given a blank emulsion with a volume equal to that of the administered group), a model group (group M, given a blank emulsion with a volume equal to that of the administered group), a CTMB group (20 mg/kg, group D), and a levodopa group (levodopa: benserazide hydrochloride=4:1, 12 mg/kg, group L), each group included 10-12 mice, and all of them were administered intraperitoneally.
Malondialdehyde (MDA) is a commonly used indicator of membrane lipid peroxidation, reduced glutathione (GSH) is one of the most commonly used non-enzymatic indicators of antioxidant substances, and superoxide dismutase (SOD) is a common indicator of antioxidant enzymes. After completing the evaluation of motor function after 4 weeks of drug administration, the mice were deeply anesthetized and perfused with 20 mL of saline via the heart. The brain was rapidly severed to isolate the striatal region on the injured side (right side), weighed, and placed into a 1.5 mL EP tube, and homogenized at low temperature by adding phosphate-buffered saline (PBS) at the ratio of a weight of animal tissues (g) to a volume of homogenization medium (mL) of 1:9. […]

[3] = tested on: GLT-1; test: GLT-1 content in brain of TBI rats; type: in vivo, SD rats; details: 30 mg/kg ip, 7 d continuous administration, FIG. 4
Protocol: (§2) The experimental grouping and drug administration plan were as follows. • Sham operation group (Group P): saline was given with the same volume as in the CTMB group; • Model group (T group): a blank emulsion was given with the same volume as in the CTMB group; • Medium dose group (Group M): a dose of 30 mg/kg of CTMB emulsion injection was given.
(§3) The experimental grouping and drug administration plan were the same as the test 3. After 7 d of continuous administration to each group, the rats were deeply anesthetized, the heads were severed and the brains were removed, about 60-120 mg of hemispheric cortex on the blood side was taken out, 10 times volume of ice-cold centrifugation buffer used for biochemical assay was added, homogenized for 10 min under an ice bath, and then centrifuged for 30 min at 4° C. and 14000 rpm/min. The supernatants were taken to test the GLT-1 and GABA content according to the instructions of GLT-1 and GABA content assay kit, respectively. Glutamate transporter 1 (GLT-1) is an important glutamate transporter in the brain that transports extracellular glutamate to the intracellular compartment. γ-aminobutyric acid (GABA) is an important inhibitory neurotransmitter, and a dramatic increase in the concentration of extracellular glutamate in pathological conditions leads to neuronal hyperexcitability toxicity.

[4] = tested on: neurons of substantia nigra region and striatum of PD mice; test: HE staining of substantia nigra and striatum of PD mice; type: in vivo, C57 mice; details: Group D, CTMB 20 mg/kg ip, 4 weeks; compared with model group; FIG. 5-7
Protocol: as §1
After completing the evaluation of motor function after 4 weeks of drug administration, the mice were deeply anesthetized, perfused with 20 mL of saline and 20 mL of 4% paraformaldehyde via the heart, and the brains were rapidly severed and extracted from the head, which were then preserved and fixed in 4% paraformaldehyde for 72 h after removal, and then embedded with paraffin to prepare the slices with a thickness of 4 μm for subsequent pathological and histological studies.
Hematoxylin-eosin (HE) staining may be used to observe changes in the pathological condition of brain tissue. […]

[5] = tested on: GABA; test: GABA content in brain of TBI rats; type: in vivo, SD rats; details: 30 mg/kg ip, 7 d continuous administration, FIG. 4
Protocol: as §2, §3

## COc1cc(OC)c(OC)cc1C=C1CCC1 [CTMB, 1-(cyclobutylidenemethyl)-2,4,5-trimethoxybenzene]
[1]
  Seizure grade score (highest, SE model rats): 4.38 ± 0.52
[2]
  GSH: 46.38 ± 6.94 μmol/g protein
[3]
  GLT-1 content in brain: reduces the GLT-1 content
  ratio of GLT-1 and GABA: significantly reduces the ratio of GLT-1 and GABA
[4]
  degree of pathological damage to the substantia nigra region and striatum: reduced
[5]
  GABA content in brain: increases the content of GABA
